Source: patent publication US7279470B2 (priority 2001, dated 2007)

Assays:
[1] = target: T1, Hormone-sensitive lipase (HSL) (Homo sapiens, UniProt Q05469); assay type: biochemical; conditions: 10 μM sample concentration; percent activity relative to a non-inhibited sample (no compound); 30 min preincubation 25° C., 120 min at 37° C.
T1 sequence (Q05469 1-1076): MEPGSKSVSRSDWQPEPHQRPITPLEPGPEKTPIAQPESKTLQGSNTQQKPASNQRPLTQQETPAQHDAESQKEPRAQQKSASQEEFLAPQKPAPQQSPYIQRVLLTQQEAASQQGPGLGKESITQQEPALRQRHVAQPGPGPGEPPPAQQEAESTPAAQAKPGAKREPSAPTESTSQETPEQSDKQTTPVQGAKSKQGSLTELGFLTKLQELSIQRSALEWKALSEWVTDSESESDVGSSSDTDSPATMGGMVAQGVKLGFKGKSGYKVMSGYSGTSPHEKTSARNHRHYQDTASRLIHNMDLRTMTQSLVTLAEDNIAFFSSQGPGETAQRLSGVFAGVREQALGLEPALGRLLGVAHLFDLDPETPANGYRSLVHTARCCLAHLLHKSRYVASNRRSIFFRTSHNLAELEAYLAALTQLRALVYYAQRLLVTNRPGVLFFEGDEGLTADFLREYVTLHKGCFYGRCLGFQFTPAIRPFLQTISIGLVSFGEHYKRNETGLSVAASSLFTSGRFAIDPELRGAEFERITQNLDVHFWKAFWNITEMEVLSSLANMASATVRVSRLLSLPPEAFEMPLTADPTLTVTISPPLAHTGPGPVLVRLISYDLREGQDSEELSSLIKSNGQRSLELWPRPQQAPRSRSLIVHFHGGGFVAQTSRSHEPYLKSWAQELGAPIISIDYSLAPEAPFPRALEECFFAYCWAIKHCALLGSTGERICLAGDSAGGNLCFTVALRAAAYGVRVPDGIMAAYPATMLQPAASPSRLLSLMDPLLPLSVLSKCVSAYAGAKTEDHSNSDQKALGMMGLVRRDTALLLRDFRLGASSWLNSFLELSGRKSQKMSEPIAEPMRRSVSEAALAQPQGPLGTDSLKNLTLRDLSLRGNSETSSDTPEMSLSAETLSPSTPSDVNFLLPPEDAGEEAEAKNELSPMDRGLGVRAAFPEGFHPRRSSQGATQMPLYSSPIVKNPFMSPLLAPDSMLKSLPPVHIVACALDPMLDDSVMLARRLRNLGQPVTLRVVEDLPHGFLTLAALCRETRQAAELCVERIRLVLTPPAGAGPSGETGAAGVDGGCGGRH
Procedure: Materials. The Hormone-sensitive lipase was provided by Dr. Cecilia Holm, from Lund University Sweden or produced and purified by Novo Nordisk (NN) using the reagents and protocols used by Dr. Holm. […] All other reagents are of commercial grade and obtained from various commercial sources.
BSA is added as product receptor. The transfer of the fluorochrome from the lipid phase to the water (BSA) phase changes the fluorescent properties of the fluorochrome. The changes can be monitored on a fluorimeter with an excitation wavelength of 450 nm and an emission wavelength of 545 nm.
Compound and HSL (20 μL compound, 10 μL enzyme and 70 μL PED-BSA buffer) is preincubated for 30 min at 25° C. before addition of substrate (100 μL). Amount of formed product is measured after 120 min incubation at 37° C.

[2] = target: T1, Hormone-sensitive lipase (HSL); assay type: biochemical; conditions: 10 μM concentration; percent activity relative to an un-inhibited sample (no compound); 3H-Triolein substrate, 25° C.
Source text: Materials. The Hormone-sensitive lipase was provided by Dr. Cecilia Holm, from Lund University Sweden or produced and purified by Novo Nordisk (NN) using the reagents and protocols used by Dr. Holm. The substrates used are: ^3H-labeled triolein (TO) from Amersham, Buckinghamshire, U.K. cat No. TRA191; 5-20 Ci/mmol dissolved in toluene, triolein (Sigma, Cat. No. T-1740), fluorochrome-labeled triacylglyceride (cis-octadec-9-enoic acid 2-[12-(7-nitrobenzo[12,5]oxadiazol-4-ylamino)dodecanoyloxy]-1-cis-octadec-9-enoyloxymethyl-ethyl ester) prepared by Novo Nordisk (NN) by conventional methods, and 1,3-(di[^3H]-stearin), 2-(PEG-Biotin)glycerol prepared in collaboration with Amersham Pharmacia Biotech, UK and described in WO 01/073442. Phosphatidyl choline (PC) and phosphatidyl inositol (PI) are from Sigma (St Luis MO cat. Nos. P-3556 and P-5954 respectively). All other reagents are of commercial grade and obtained from various commercial sources.
3180.2: Assay for determination of percent inhibition by compound at 10 μM concentration. A lipid emulsion with ^3H-Triolein and phospholipid is used as substrate with a standard cencentration of highly purified HSL. BSA is added as product receptor. The substrate is prepared as follows: […]

Molecule	Test 3190.1 HSL_FL % ACTIVITY All [1] [%]	Test 3180.2 HSL % ACTIVITY All [2] [%]
CN(C(=O)Oc1ccc(OC(F)(F)C(F)(F)F)cc1)c1ccccc1 [Example 20]	51	–
O=C(Oc1ccc(Oc2ccc3c(C(F)(F)F)cc(C(F)(F)F)nc3n2)cc1)N1CCOCC1 [Example 90, Morpholine-4-carboxylic acid 4-(5,7-bis-trifluoromethyl-[1,8]naphthypyridin-2-yloxy)-phenyl ester]	24	–
Cc1c(Cc2ccccc2)c(=O)oc2cc(OC(=O)N3CCOCC3)ccc12 [Example 92]	–	62
N-Methyl-N-phenethyl-5-ethyl-3-(4-chlorophenyl)-[1,2,4]triazole-1-carboxamide [Example 119]	–	10
